Reference: US20130261136A1, “COFFEE EXTRACTS AS INGREDIENTS OF FOODS, DRUGS, COSMETICS, DIETARY SUPPLEMENTS, AND BIOLOGICS” (priority 2010, published 2013)

Tests used:
[1] = ORAC assay adapted for the linoleate microemulsion system (relative ORAC, synergy)
Method: Synergistic effects of bioactive compounds combined with alpha-tocopherol. […] An OBS microplate was prepared with duplicate wells of Trolox solution standards (20 μL; 500, 250, 125, 62.5, or 31.25 μM) and triplicate wells of samples diluted in phosphate buffer (20 μL). The perimeter wells were not used for kinetic studies to avoid potential edge effects. The oxidation substrate, methyl linoleate microemulsion (200 μL), was then added. […] A control well containing 200 μL of microemulsion and 40 μL of phosphate buffer was used to normalize the fluorescence reading. The reaction kinetics were monitored at 37° C. for 2 h, with readings every 2 min, by a Synergy HT microplate fluorescent reader (Biotek Instruments Inc.). The microplate reader was fitted with an excitation filter at 485 nm, an emission filter of 590 nm, and an oxygen sensor biosystem, and the plate was shaken for 20 s at low intensity before each reading to ensure sufficient mixing. After normalization, the fluorescence data were converted to the oxygen concentration at each point of the reaction. The ORAC values of samples were determined as previously described ([…]. et al., Journal of Agricultural and Food Chemistry 2009, 57, 3409-3414).

[2] = system: human skeletal muscle cells; experiment: Glucose uptake (3H-2-deoxyglucose) in skeletal muscle cells; assay type: cell-based; settings: 100 nM insulin (positive control)
Method: (§1) Glucose uptake. […] Briefly, primary human subcutaneous adipocytes or primary human myoblasts were differentiated in 96-well microplates. […] All samples, including the positive and negative controls, were tested in triplicate. After a 2-h incubation at 37° C. and 5% CO2, the cells were washed with PBS and lysed. The cell lysate was mixed with scintillation fluid and radioactivity of each well was measured as counts per minute (CPM).

human adipocytes = experiment: Glucose uptake (3H-2-deoxyglucose) in adipocytes; assay type: cell-based; settings: 100 nM insulin (positive control)
Method: as §1

O=C1O[C@H]([C@@H](O)CO)C(O)=C1O [ascorbic acid]
Antioxidant effect in combination with α-tocopherol [1]: additive

Oc1cc(O)c2c(c1)O[C@H](c1ccc(O)c(O)c1)[C@@H](O)C2 [catechin, Catechin]
Antioxidant effect in combination with α-tocopherol [1]: synergistic

O=C(/C=C/c1ccc(O)c(O)c1)O[C@@H]1C[C@](O)(C(=O)O)C[C@@H](O)[C@H]1O [chlorogenic acid]
Antioxidant effect in combination with α-tocopherol [1]: synergistic

insulin
Increase in glucose uptake [2]: 2.06 fold | Increase in glucose uptake (human adipocytes): 1.6 fold
